The source of these data is US20240116985A1, “STAPLED PEPTIDES AND METHODS THEREOF” (priority 2020, published 2024).

Values after ≈ are worked out from the molar mass of the structure shown. Read-outs that look alike come from different tables or passages of the source.

The target of data set [1] is T1, full-length beta-Catenin (Uniprot ID P35222) (Homo sapiens, UniProt P35222).
T1 construct: 10 nM full-length beta-Catenin (Uniprot ID P35222)
T1 sequence (P35222 1-781): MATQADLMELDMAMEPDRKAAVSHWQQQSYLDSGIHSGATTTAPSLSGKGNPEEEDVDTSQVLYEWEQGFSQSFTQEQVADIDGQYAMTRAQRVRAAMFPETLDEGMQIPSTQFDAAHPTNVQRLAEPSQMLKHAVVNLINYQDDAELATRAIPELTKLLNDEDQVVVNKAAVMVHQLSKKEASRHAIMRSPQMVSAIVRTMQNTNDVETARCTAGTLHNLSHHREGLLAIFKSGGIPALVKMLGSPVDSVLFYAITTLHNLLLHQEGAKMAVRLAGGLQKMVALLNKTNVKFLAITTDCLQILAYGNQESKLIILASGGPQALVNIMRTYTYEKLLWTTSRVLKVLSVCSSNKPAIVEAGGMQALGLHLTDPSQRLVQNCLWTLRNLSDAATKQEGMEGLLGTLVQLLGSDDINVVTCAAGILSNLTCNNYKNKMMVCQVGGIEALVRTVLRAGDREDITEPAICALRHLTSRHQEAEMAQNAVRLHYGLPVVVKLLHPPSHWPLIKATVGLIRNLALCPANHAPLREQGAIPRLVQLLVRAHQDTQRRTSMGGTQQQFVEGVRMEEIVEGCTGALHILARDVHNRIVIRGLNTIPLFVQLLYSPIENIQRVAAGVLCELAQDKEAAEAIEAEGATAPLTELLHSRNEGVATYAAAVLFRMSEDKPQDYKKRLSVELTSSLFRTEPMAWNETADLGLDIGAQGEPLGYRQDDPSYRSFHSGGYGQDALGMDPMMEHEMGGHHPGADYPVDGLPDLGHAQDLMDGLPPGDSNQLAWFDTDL
The experiment in a line: Fluorescence polarization IC50 (beta-catenin / 5FAM-TCF4 10-53 competition). The format is binding.

The next data set in a line: Solubility in PBS. The format is physicochemical. An outline of the steps:
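PBS sample ultracentrifuged; supernatant run on HPLC vs. 50 μM peptide in DMSO standard. Solubility = (PBS peak area / DMSO peak area) × 50 uM.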

Data set [2] addresses T2, beta-catenin/TCF4 engagement (Homo sapiens, UniProt P35222).
T2 construct: expressed in transfected cells; host or cells: HEK293
T2 sequence (P35222 1-781): T1 sequence (P35222 1-781)
Description: Nano-BRET target engagement assay (B-cat-Halo & TCF4-Luc in HEK293 cells). Type of data set: cell-based. A general note: BRET reads energy transfer from a luciferase to a nearby fluorophore.

The mark [3] stands for this setting: fluorescence polarization, read-out: beta-Catenin FP IC50.
Setting [4] is: absolute IC50, read-out: NanoBRET Abs IC50.

For the molecule `COCCOCCC(=O)N1CCC[C@]12CC=CCCCC1(CCCC=CCCCCCC[C@@](C)(C(=O)N[C@@H](Cc3ccccc3Cl)C(=O)N[C@@H](Cc3csc4ccccc34)C(=O)N[C@@H](CCC(N)=O)C(N)=O)NC(=O)[C@H]([C@@H](C)O)NC(=O)[C@H](Cc3ccccc3)NC(=O)[C@H](C)NC(=O)[C@H](C)NC(=O)[C@H](CC(=O)O)NC(=O)[C@H](CC(=O)O)NC1=O)NC(=O)[C@H](CC(C)(C)C)NC(=O)[C@H](CC(=O)O)NC2=O` (stereo partly drawn) [I-1255, mPEG2-PL3-Asp-Npg-B5-Asp-Asp-Ala-Ala-Phe-Thr-S8-2C1F-BztA-Gln-NH2], the IC50 is 32 nM in data set [1] (setting [3]) and over 20000 nM in data set [2] (setting [4]). In “Solubility in PBS”, the “Solubility” value was 50 µM (≈ 98.9 µg/mL).
Turning to `C[C@@H]1NC(=O)[C@H](C)NC(=O)[C@H](CC(=O)O)NC(=O)[C@H](CC(=O)O)NC(=O)C2(CCCC=CCCCCCC[C@@](C)(C(=O)N[C@@H](Cc3ccccc3Cl)C(=O)N[C@@H](Cc3csc4ccccc34)C(=O)N[C@@H](CCC(N)=O)C(N)=O)NC(=O)[C@H]([C@@H](C)O)NC(=O)[C@H](Cc3ccccc3)NC1=O)CCCC=CC[C@]1(CCCN1S(C)(=O)=O)C(=O)N[C@@H](CC(=O)O)C(=O)N[C@@H](CC(C)(C)C)C(=O)N2` (stereo partly drawn) [I-1260, MeSO2-PL3-Asp-Npg-B5-Asp-Asp-Ala-Ala-Phe-Thr-S8-2C1F-BztA-Gln-NH2], the 50% inhibitory concentration (IC50) in data set [1] (setting [3]) is 23 nM; in data set [2] (setting [4]), 24000 nM. Besides, the “Solubility” value in “Solubility in PBS” was determined as 50 µM (≈ 96.3 µg/mL).
Turning to `COCCC(=O)N1CCC[C@]12CC=CCCCC1(CCCC=CCCCCCC[C@@](C)(C(=O)N[C@@H](Cc3ccccc3Cl)C(=O)N[C@@H](Cc3csc4ccccc34)C(=O)N[C@@H](CCC(N)=O)C(N)=O)NC(=O)[C@H]([C@@H](C)O)NC(=O)[C@H](Cc3ccccc3)NC(=O)[C@H](C)NC(=O)[C@H](C)NC(=O)[C@H](CC(=O)O)NC(=O)[C@H](CC(=O)O)NC1=O)NC(=O)[C@H](CC(C)(C)C)NC(=O)[C@H](CC(=O)O)NC2=O` (stereo partly drawn) [I-1261, MeOPr-PL3-Asp-Npg-B5-Asp-Asp-Ala-Ala-Phe-Thr-S8-2C1F-BztA-Gln-NH2], the figures for the IC50 in data set [1] (setting [3]) and in data set [2] (setting [4]) were 31 nM and 19800 nM, respectively. Besides, in the data set “Solubility in PBS”, the “Solubility” value came to 50 µM (≈ 96.7 µg/mL).
Turning to `CC(=O)N1CCC[C@]12CC=CCCCC1(CCCC=CCCCOC(=O)N3CC[C@@](C(=O)N[C@@H](Cc4ccccc4)C(=O)N[C@@H](Cc4csc5ccccc45)C(=O)N[C@@H](CO)C(N)=O)(C3)NC(=O)[C@H]([C@@H](C)O)NC(=O)[C@H](Cc3ccccc3)NC(=O)[C@H](C)NC(=O)[C@H](C)NC(=O)[C@H]([C@@H](C)O)NC(=O)[C@H](CC(=O)O)NC1=O)NC(=O)[C@H](CC(C)(C)C)NC(=O)[C@H](CC(=O)O)NC2=O` (stereo partly drawn) [I-1263, Ac-PL3-Asp-Npg-B5-Asp-Thr-Ala-Ala-Phe-Thr-PyrS2-Phe-BztA-Ser-NH2], the IC50 turned out to be 43 nM in data set [1] (setting [3]) and 20000 nM in data set [2] (setting [4]). The molecule further yielded a Solubility in “Solubility in PBS” (Solubility (uM)) of 12 µM (≈ 22.1 µg/mL).
As for `CC(=O)N1CCC[C@]12CC=CCCCC1(CCCC=CCCCOC(=O)N3CC[C@@](C(=O)N[C@@H](Cc4ccccc4)C(=O)N[C@@H](Cc4csc5ccccc45)C(=O)N[C@@H](CO)C(N)=O)(C3)NC(=O)[C@H]([C@@H](C)O)NC(=O)[C@H](Cc3ccccc3)NC(=O)[C@H](C)NC(=O)[C@H](CC(C)C)NC(=O)[C@H]([C@@H](C)O)NC(=O)[C@H](CC(=O)O)NC1=O)NC(=O)[C@H](CC(C)(C)C)NC(=O)[C@H](CC(=O)O)NC2=O` (stereo partly drawn) [I-1264, Ac-PL3-Asp-Npg-B5-Asp-Thr-Leu-Ala-Phe-Thr-PyrS2-Phe-BztA-Ser-NH2], the IC50 in data set [1] (beta-Catenin FP IC50, fluorescence polarization) was 157 nM; in data set [2] (NanoBRET Abs IC50, absolute IC50) it was over 20000 nM. For the same molecule, in “Solubility in PBS”, the “Solubility” value was 10 µM (≈ 18.9 µg/mL).
For `CC(=O)N1CCC[C@]12CC=CCCCC1(CCCC=CCCCOC(=O)N3CC[C@@](C(=O)N[C@@H](Cc4ccccc4)C(=O)N[C@@H](Cc4csc5ccccc45)C(=O)N[C@@H](CO)C(N)=O)(C3)NC(=O)[C@H]([C@@H](C)O)NC(=O)[C@H](Cc3ccccc3)NC(=O)[C@H](CC(C)C)NC(=O)[C@H](C)NC(=O)[C@H]([C@@H](C)O)NC(=O)[C@H](CC(=O)O)NC1=O)NC(=O)[C@H](CC(C)(C)C)NC(=O)[C@H](CC(=O)O)NC2=O` (stereo partly drawn) [I-1265, Ac-PL3-Asp-Npg-B5-Asp-Thr-Ala-Leu-Phe-Thr-PyrS2-Phe-BztA-Ser-NH2], the results for the IC50 in data set [1] (setting [3]) and in data set [2] (setting [4]) were 152 nM and 22700 nM, respectively. Moreover, in the data set “Solubility in PBS”, the “Solubility” value is 10 µM (≈ 18.9 µg/mL).
With `CC(=O)N1CCC[C@]12CC=CCCCC1(CCCC=CCCCOC(=O)N3CC[C@@](C(=O)N[C@@H](Cc4ccccc4)C(=O)N[C@@H](Cc4csc5ccccc45)C(=O)N[C@@H](CO)C(N)=O)(C3)NC(=O)[C@H]([C@@H](C)O)NC(=O)[C@H](Cc3cccc4ccccc34)NC(=O)[C@H](C)NC(=O)[C@H](C)NC(=O)[C@H]([C@@H](C)O)NC(=O)[C@H](CC(=O)O)NC1=O)NC(=O)[C@H](CC(C)(C)C)NC(=O)[C@H](CC(=O)O)NC2=O` (stereo partly drawn) [I-1266, Ac-PL3-Asp-Npg-B5-Asp-Thr-Ala-Ala-1NapA-Thr-PyrS2-Phe-BztA-Ser-NH2], the IC50 in data set [1] (setting [3]) is 755 nM; in data set [2] (setting [4]), over 20000 nM. For the same molecule, in “Solubility in PBS”, the “Solubility” value is 10 µM (≈ 18.9 µg/mL).
The corresponding values for `CC(=O)N1CCC[C@]12CC=CCCCC1(CCCC=CCCCOC(=O)N3CC[C@@](C(=O)N[C@@H](Cc4ccccc4)C(=O)N[C@@H](Cc4csc5ccccc45)C(=O)N[C@@H](CO)C(N)=O)(C3)NC(=O)[C@H]([C@@H](C)O)NC(=O)[C@H](Cc3ccc4ccccc4c3)NC(=O)[C@H](C)NC(=O)[C@H](C)NC(=O)[C@H]([C@@H](C)O)NC(=O)[C@H](CC(=O)O)NC1=O)NC(=O)[C@H](CC(C)(C)C)NC(=O)[C@H](CC(=O)O)NC2=O` (stereo partly drawn) [I-1267, Ac-PL3-Asp-Npg-B5-Asp-Thr-Ala-Ala-2NapA-Thr-PyrS2-Phe-BztA-Ser-NH2] are 181 nM, 36900 nM and 10 µM (≈ 18.9 µg/mL).
The corresponding values for `CC(=O)N1CCC[C@]12CC=CCCCC1(CCCC=CCCCOC(=O)N3CC[C@@](C(=O)N[C@@H](Cc4cccc5ccccc45)C(=O)N[C@@H](Cc4csc5ccccc45)C(=O)N[C@@H](CO)C(N)=O)(C3)NC(=O)[C@H]([C@@H](C)O)NC(=O)[C@H](Cc3ccccc3)NC(=O)[C@H](C)NC(=O)[C@H](C)NC(=O)[C@H]([C@@H](C)O)NC(=O)[C@H](CC(=O)O)NC1=O)NC(=O)[C@H](CC(C)(C)C)NC(=O)[C@H](CC(=O)O)NC2=O` (stereo partly drawn) [I-1269, Ac-PL3-Asp-Npg-B5-Asp-Thr-Ala-Ala-Phe-Thr-PyrS2-1NapA-BztA-Ser-NH2] are 173 nM, 17600 nM and 10 µM (≈ 18.9 µg/mL).
As for `CC(=O)N1CCC[C@]12CC=CCCCC1(CCCC=CCCCOC(=O)N3CC[C@@](C(=O)N[C@@H](Cc4ccccc4Cl)C(=O)N[C@@H](Cc4csc5ccccc45)C(=O)N[C@H](C(N)=O)[C@@H](C)O)(C3)NC(=O)[C@H]([C@@H](C)O)NC(=O)[C@H](Cc3ccccc3)NC(=O)[C@H](C)NC(=O)[C@H](CCCCNC(C)C)NC(=O)[C@H](CC(=O)O)NC(=O)[C@H](CC(=O)O)NC1=O)NC(=O)[C@H](CC(C)(C)C)NC(=O)[C@H](CC(=O)O)NC2=O` (stereo partly drawn) [I-1273, Ac-PL3-Asp-Npg-B5-Asp-Asp-iPrLys-Ala-Phe-Thr-PyrS2-2C1F-BztA-Thr-NH2], the 50% inhibitory concentration (IC50) was 9 nM in data set [1] (setting [3]) and over 20000 nM in data set [2] (setting [4]). The concentration in solution in the data set “Solubility in PBS” (Solubility (uM)) (Solubility) was 32 µM (≈ 64.2 µg/mL).

As usually defined, the IC50 is the point on the concentration scale where inhibition reaches its midpoint. The Solubility is the concentration that dissolves in the medium under given conditions.
